Experimental findings from US20220133753A1, “COMPOSITIONS AND METHODS USEFUL FOR TREATING DISEASES CHARACTERIZED BY INSUFFICIENT PANTOTHENATE KINASE ACTIVITY” (Comet Therapeutics, Inc., priority 2016, published 2022) are described below.

Series [1] in a line: Parallel Artificial Membrane Permeability Assay (PAMPA). In kind it is in vitro ADME. Particulars: 5 h incubation, room temperature, phosphate-buffered saline. On the procedure:
FIG. 13E is a depiction of a Parallel Artificial Membrane Permeability Assay (PAMPA). Experiments were performed according to the manufacturer's instructions. In this assay, a two-well system is separated by an artificial lipid-oil-lipid membrane (shown in grey). To the lower (donor) compartment, a compound dissolved in buffer is added, the upper (acceptor) compartment contains only buffer. After 5 hours of incubation, concentration of compound is measured in both wells to assess its propensity to diffuse over the artificial membrane. The permeability was calculated according to the manufacturer's instruction (formulas are depicted to the right). Compounds that are below the assay threshold are predicted to be unable to pass membranes passively, whereas compounds above the threshold are able to pass membranes passively. Ceq=Equilibrium Concentration, CD=Concentration in donor well, VD=Volume of donor well (0.3 ml), CA=Concentration in acceptor well, VA=Volume of acceptor well (0.2 ml), P=Permeability, S=Membrane area (0.3 cm2), t=Incubation time (18000 s).
PAMPA assay procedure: Parallel Artificial Membrane Permeability Assay (PAMPA) was performed and processed according to manufacturer's instructions (BD Gentest Pre-coated PAMPA plates). Briefly, two superimposed wells are separated by an artificial lipid-oil-lipid membrane. The compound of interest (PPanSH, CoA, caffeine, amiloride) was added to the bottom well in phosphate-buffered saline, whereas the top well was filled with phosphate-buffered saline alone. After 5 h of incubation at room temperature, concentrations of the different compounds were measured using UV-VIS absorption spectroscopy (BMG Labtech SPECTROstar Omega) along with calibration curves for all compounds. The permeability efficiency was further calculated according to manufacturer's instructions. For caffeine and amiloride, four replicates were performed; for PPanSH and CoA twelve replicates were performed. Caffeine and amiloride were obtained from Sigma.
On the technique in general: The PAMPA barrier holds no transporters, so it reflects passive diffusion.

Series [2] relates to COASY down-regulated HEK293 cells. Kind of series: Knock-down of COASY by siRNA in HEK293 cells with CoA. In kind it is cell-based, human. The following applies: CoA added to the medium. The protocol:
Knock-down of COASY by siRNA in mammalian HEK293 cells: HEK293 were maintained as described above. HEK293 were transfected with 200 nM COASY siRNA (GE Healthcare human COASY 80347 smartpool Cat no: M-006751-00-0010) or non-targeting siRNA (GE Healthcare Cat no: D-001206-13-20) using lipofectamine 2000 (Invitrogen) 4 h after transfection CoA was added in a final concentration of 25 uM. Cells were cultured for 3 days and then harvested for HPLC analysis of total CoA and PPanSH levels and Western blot (histone acetylation) as described below.
Western blot analysis and Antibodies: For Western blot analysis, cells were collected and washed with phosphate buffer saline (PBS), followed by centrifugation. The cells were lysed and sonicated in 1X Laemmli Sample Buffer and boiled for 5 min with 5% β-mercaptoethanol (Sigma). Protein content was determined using DC protein assay (BioRad). Equal amounts of protein were loaded on a 10 or 12.5% SDS-PAGE gel, transferred onto PVDF membranes and blocked with 5% milk in PBS/0.1% Tween, followed by overnight incubation with primary antibodies. […] Appropriate HRP-conjugated secondary antibodies (Amersham) were used and detection was performed using enhanced chemi-luminescence (Pierce cat nog: 32106) and Amersham hyperfilm (GE Healthcare). Band intensities were quantified with Image-studio software.

In series [3] the test system is homozygous dCOASY mutants. Description: Drosophila dCOASY mutants, larval development with CoA or Vitamin B5. Particulars: added to the food. Type of series: in vivo, Drosophila melanogaster. The protocol: Drosophila Maintenance and Crosses: Drosophila melanogaster stocks/crosses were raised on standard cornmeal agar fly food (containing water, agar 17 g/L, sugar 54 g/L, yeast extract 26 g/L and nipagin 1.3 g/L) at 25° C. The stocks were either obtained from the Bloomington Stock Centre (Indiana University, USA), VDRC (Vienna Drosophila RNAi Collection, Vienna, Austria) or from the Exelixis Collection (Harvard Medical School) and rebalanced to generate eGFP-positive balancers. The stocks used were: w1118; dPANK/fbl1 hypomorph5,6; dPANK/fblnull (y[1] w[*]; Mi{y[+mDint2]=MIC}fbl[MI04001]/TM3, Sb[1] Ser[1], Bloomington 36941); dPPCDC mutant (w[1118], PBac{w[+mC]=WH}Ppcdc[f00839]/CyO, Bloomington 18377); UAS-dPPCDCRNAi line (VDRC 104495); dCOASY mutant (PBac{RB}Ppat-Dpck[e00492], Exelixis). The UAS-RNAi constructs were expressed ubiquitously using the Actin-Gal4 drivers (y[1] w[*]; P{w[+mC]=Act5C-GAL4}25FO1/CyO, y[+], Bloomington 4414). Heterozygous flies/larvae for the mutants and the Actin-Gal4 driver crossed to isogenic w1118 flies (Actin-Gal4/+) were used as controls for the RNAi-constructs expressing flies.
Drosophila Larval Collection and Larval Count Experiment: One week old flies (in the ratio 10 females and 5 males) were kept on 5 ml of standard fly food in a vial at 25° C. with or without various concentrations of CoA or Vitamin B5 (Sigma). […]

Series [4] is described as follows: Conversion of CoA in mouse serum by HPLC. In kind it is in vitro ADME. The text has this: The conversion of CoA to 4′-phosphopantetheine was further investigated in mouse serum and in human serum.

Each structure is given as a SMILES string. Like-named read-outs stand apart in the source and are kept apart here.

For the molecule `CC(C)(COP(=O)(O)OP(=O)(O)OC[C@H]1O[C@@H](n2cnc3c(N)ncnc32)[C@H](O)[C@@H]1OP(=O)(O)O)[C@@H](O)C(=O)NCCC(=O)NCCS` [CoA, Coenzyme A], in series [1], the “membrane permeation (PAMPA)” value is “poorly permeating molecule and not”. Further, the “rescue of COASY RNAi-induced decrease in intracellular CoA levels” value in series [2] is listed as “neither rescued”. Also, where the note is “3 h”, the “CoA, share of the initial concentration still present” value is > 95%. Moreover, the “conversion of CoA in serum” value (bovine (fetal calf)) is given as “converted into 4′-phosphopantetheine” and the “conversion of CoA in serum” value in series [4] was “converted to 4′-phosphopantetheine”. Moreover, the CoA degraded (bovine (fetal calf), 30 min) amounted to 90%. The “rescue of the phenotype” value in series [3] was “did not result in a significant rescue”.
